These are literature values, as cited in patent US20150202321A1, “COMPOSITIONS COMPRISING CHITOSAN-DRUG CONJUGATES AND METHODS OF MAKING AND USING THE SAME” (NEWGEN BIOPHARMA CORP., priority 2012, published 2015).

For data set [1] the following is noted: oral.
Test in data set [2]: not given
The source holds these as a separate data set.

Molecules are shown by their SMILES. Structures can show the parent of a compound that is named as a salt. Where two headings read alike, the source gives them in different places.

As to `CC(C)c1nc(N(C)S(C)(=O)=O)nc(-c2ccc(F)cc2)c1/C=C/[C@@H](O)C[C@@H](O)CC(=O)O` [rosuvastatin], for the setting “evening versus morning”, the “AUC following evening or morning drug administration” value is given as “does not differ”. Moreover, under “man”, the absolute bioavailability result is “approximately 20%” and the elimination half life was around 19 h.
`CC(C)c1c(C(=O)Nc2ccccc2)c(-c2ccccc2)c(-c2ccc(F)cc2)n1CC[C@@H](O)C[C@@H](O)CC(=O)O` [AT, [R—(R/,R/)]-2-(4-fluorophenyl)-b,d-dihydroxy-5-(1-methylethyl)-3-phenyl-4-[(phenylamino)carbonyl]-1H-pyrrole-1-heptanoic acid, calcium salt (2:1) trihydrate]: in data set [1], the “systemic availability for HMG-CoA reductase activity” value is listed as “approximately 30%”.
One may read the bioavailability as the share of a dose that reaches the circulation, judged against a reference dose that is usually intravenous. Consider `CC(=O)O[C@@]12CO[C@@H]1C[C@H](O)[C@@]1(C)C(=O)[C@H](O)C3=C(C)[C@@H](OC(=O)[C@H](O)[C@@H](NC(=O)OC(C)(C)C)c4ccccc4)C[C@@](O)([C@@H](OC(=O)c4ccccc4)[C@H]21)C3(C)C` [docetaxel], for which the bioavailability in data set [2] (intravenous administration) is given as 100%. In addition, the oral bioavailability in data set [2] (co-administered with cyclosporine) is recorded as 90%±44%; in data set [2] (on its own), 8%±6%.
